Measured values published in patent EP0565593B1, “REDUCING PESTICIDAL INTERACTIONS IN CROPS” (priority 1990, dated 1992).
Where “and” joins values, the source holds several entries; their conditions need not be identical. Equal values may be shown once.

Experiments:
[1] = tested on: Corn; assay: Field trials, PPI, PRE and POE herbicide applications with terbufos (Example 7); format: in vivo
Text: This example summarizes the results of one series of field trials from a plurality of locations and soil types wherein test chemicals were applied in various modes including pre-plant incorporated (PPI), post emergence (POE) and preemergence (PRE) with and without a safener (antidote). Test Chemicals were Herbicide Nos 1, 2, 3 and 7-9; Insecticide No. 1 and Antidote No. 1.
In these trials Insecticide No. 1 (terbufos) was T-banded or furrow applied at labeled rates prior to planting corn. PPI herbicide treatments were applied prior to insecticide applications; PRE treatments were applied after the insecticide application either prior to or after seeding the corn. POE herbicide applications were made at 2 corn-growth stages, i.e., early post (EP) at the 2-3 leaf stage and late post (LP) at the 4-7 leaf stage. Plots were small plot with 3 replications in a randomized complete block design. In the PRE and PPI herbicide treatments, Antidote No. 1 was applied as a tankmix in both treatments. In the POE herbicide treatments, that antidote was applied as a tank mix with the herbicide at the EP and LP stages.

[2] = tested on: VELE (velvetleaf); assay: Greenhouse test Procedure II (Example 4; Table 4); format: in vivo, Abutilon theophrasti; settings: 3 weeks
Procedure: Containers were filled and compacted with a fumigated silt loam top soil to a depth of about 1.3 cm from the top of the container. A first container was designated as an untreated control, a second container was designated as a herbicide control, and a third container was designated as a herbicide + antidote test container. Each of the containers was seeded with a crop species. A measured amount of herbicide dispersed or dissolved in acetone was applied to a measured quantity of soil. To this same quantity of soil treated with herbicide, there was added a measured amount of antidote dispersed or dissolved in acetone. The quantity of soil treated with the herbicide and antidote was thoroughly mixed to incorporate the herbicide and antidote in the soil uniformly. The seed bed in the third container of soil was covered with the soil treated with the herbicide and antidote and the container was leveled. For each test series, the seed beds of the first and second containers were likewise covered by soil layers. the cover layer of the first container was not treated with herbicide or antidote.
This procedure is the same as Procedure I, but modified in the manner that after incorporation of the chemicals (herbicide, antidote and insecticide), the containers with the covered seedbed were treated with an initial overhead irrigation equivalent to 0.6 cm rainfall, then subsequently sub-irrigated as required on greenhouse benches.
The procedure used in this test was Procedure No. 2 above. Formulations of herbicide, insecticide and antidote were applied via track sprayer sequentially onto cover layers, incorporated into the soil which was spread over seedbeds, then irrigated from above with 0.6 cm water. Observations were made three (3) weeks after treatment.

[3] = tested on: velvetleaf (Abutilon theophrasti); assay: Greenhouse test, combination of Procedures II and III (Examples 1, 2; Tables 1, 2); format: in vivo; settings: for Percent Injury VELE: 7 weeks; for % Injury VELE: 3 weeks
[4] = tested on: Corn; assay: Greenhouse test, combination of Procedures II and III: insecticide in-furrow or in cover layer, herbicide and antidote incorporated in cover layer (Examples 1-3, 6; Tables 1-3, 6); format: in vivo; settings: for Percent Injury Corn: 7 weeks; for % Injury Corn: 3 weeks
[5] = Antidote 1 0.14 + Herbicide 1 0.14 Kg/Ha
[6] = Antidote 1 0.56 + Herbicide 1 0.56 Kg/Ha
[7] = Antidote 1 2.24 + Herbicide 1 2.24 Kg/Ha
[8] = Ex. 2: Antidote 1 0.14 + Herbicide 1 0.14 Kg/Ha
[9] = Ex. 2: Antidote 1 0.42 + Herbicide 1 0.14 Kg/Ha
[10] = Ex. 2: Antidote 1 0.56 + Herbicide 1 0.56 Kg/Ha
[11] = Ex. 2: Antidote 1 1.68 + Herbicide 1 0.56 Kg/Ha
[12] = Ex. 2: Insecticide 1 0.11 kg/305m + Antidote 1 0.14 + Herbicide 1 0.14 Kg/Ha

With CC1(C)OC(c2ccco2)CN1C(=O)C(Cl)Cl (stereo not drawn) [Antidote No. 1, Oxazolidine, 3-(dichloroacetyl)-2,2-dimethyl-5-(2-furanyl)-] the “safening of insecticide interactions” value ([1]; antidote tankmix POE with Herbicide No. 7, Insecticide No. 1) was “effectively safened”, the “crop injury” value ([1]; mean of nine locations, PRE and PPI, Insecticide No. 1, 1:1 Herbicide No. 1:Antidote No. 1 and 30:1 Herbicide No. 2:Antidote No. 1) was “reduced from non-commercially-acceptable to commercially-acceptable levels” and the “% Injury VELE” value ([2]; Antidote 1 0.07 + Herbicide 1 0.07 kg/Ha) was 8%. The “% Injury VELE” value ([2]; Antidote 1 0.07 + Herbicide 4 0.07 kg/Ha) was 0%, the “% Injury VELE” value ([2]; Antidote 1 0.07 + Herbicide 5 0.07 kg/Ha) was 68% and the “% Injury VELE” value ([2]; Antidote 1 0.07 + Herbicide 6 0.07 kg/Ha) was 5%. For the same molecule, the “% Injury VELE” value ([2]; Antidote 1 0.14 + Herbicide 1 0.14 kg/Ha) was 43%, the “% Injury VELE” value ([2]; Antidote 1 0.14 + Herbicide 4 0.14 kg/Ha) was 30% and the “% Injury VELE” value ([2]; Antidote 1 0.14 + Herbicide 5 0.14 kg/Ha) was 68%. The “% Injury VELE” value ([2]; Antidote 1 0.14 + Herbicide 6 0.14 kg/Ha) was 28%, the “% Injury VELE” value ([2]; Insecticide 2 3.36 + Antidote 1 0.014 + Herbicide 1 0.14 kg/Ha) was 53% and the “% Injury VELE” value ([2]; Insecticide 2 3.36 + Antidote 1 0.07 + Herbicide 1 0.07 kg/Ha) was 23%. For the same molecule, the “% Injury VELE” value ([2]; Insecticide 2 3.36 + Antidote 1 0.07 + Herbicide 4 0.07 kg/Ha) was 0%, the “% Injury VELE” value ([2]; Insecticide 2 3.36 + Antidote 1 0.07 + Herbicide 5 0.07 kg/Ha) was 55% and the “% Injury VELE” value ([2]; Insecticide 2 3.36 + Antidote 1 0.07 + Herbicide 6 0.07 kg/Ha) was 15%. The “% Injury VELE” value ([2]; Insecticide 2 3.36 + Antidote 1 0.14 + Herbicide 4 0.14 kg/Ha) was 78%, the “% Injury VELE” value ([2]; Insecticide 2 3.36 + Antidote 1 0.14 + Herbicide 5 0.14 kg/Ha) was 83% and the “% Injury VELE” value ([2]; Insecticide 2 3.36 + Antidote 1 0.14 + Herbicide 6 0.14 kg/Ha) was 40%. For the same molecule, the “Percent Injury VELE” value [3, 5] was 88%, the “Percent Injury VELE” value [3, 6] was 92% and the “Percent Injury VELE” value [3, 7] was 93%. For the same molecule, the “Percent Injury VELE” value ([3]; Antidote 1 2.24 Kg/Ha alone) was 0%, the “% Injury VELE” value [3, 8] was 86% and the “% Injury VELE” value [3, 9] was 93%. The “% Injury VELE” value [3, 10] was 90%, the “% Injury VELE” value [3, 11] was 95% and the “% Injury VELE” value [3, 12] was 78%. For the same molecule, the “% Injury VELE” value ([3]; Ex. 2: Insecticide 1 0.11 kg/305m + Antidote 1 0.42 + Herbicide 1 0.14 Kg/Ha) was 84%, the “% Injury VELE” value ([3]; Ex. 2: Insecticide 1 0.11 kg/305m + Antidote 1 0.56 + Herbicide 1 0.56 Kg/Ha) was 93% and the “% Injury VELE” value ([3]; Ex. 2: Insecticide 1 0.11 kg/305m + Antidote 1 1.68 + Herbicide 1 0.56 Kg/Ha) was 95%. For the same molecule, the “% Injury VELE” value ([3]; Ex. 2: Insecticide 1 0.23 Kg/305m (ditto mark) + Antidote 1 0.22 + Herbicide 2 4.48 Kg/Ha (so in the source)) was 36% and 38%, the “% Injury VELE” value ([3]; Ex. 2: Insecticide 1 0.23 Kg/305m + Antidote 1 0.14 + Herbicide 1 0.14 Kg/Ha) was 83% and the “% Injury VELE” value ([3]; Ex. 2: Insecticide 1 0.23 Kg/305m + Antidote 1 0.22 + Herbicide 1 0.14 + Herbicide 2 4.48 Kg/Ha) was 98%. The “% Injury VELE” value ([3]; Ex. 2: Insecticide 1 0.23 Kg/305m + Antidote 1 0.42 + Herbicide 1 0.14 Kg/Ha) was 90%, the “% Injury VELE” value ([3]; Ex. 2: Insecticide 1 0.23 Kg/305m + Antidote 1 0.56 + Herbicide 1 0.56 Kg/Ha) was 95% and the “% Injury VELE” value ([3]; Ex. 2: Insecticide 1 0.23 Kg/305m + Antidote 1 1.68 + Herbicide 1 0.56 Kg/Ha) was 93%. The “% Injury VELE” value ([3]; Ex. 2: Insecticide 2 1.68 kg/Ha + Antidote 1 0.14 + Herbicide 1 0.14 Kg/Ha (so in the source)) was 91% and 84% and 79%, the “% Injury VELE” value ([3]; Ex. 2: Insecticide 2 1.68 kg/Ha + Antidote 1 0.56 + Herbicide 1 0.56 Kg/Ha (so in the source)) was 90% and 89% and 91% and the “% Injury VELE” value ([3]; Ex. 2: Insecticide 2 3.36 Kg/Ha + Antidote 1 0.14 + Herbicide 1 0.14 Kg/Ha (so in the source)) was 81% and 79% and 89%. The “% Injury VELE” value ([3]; Ex. 2: Insecticide 2 3.36 Kg/Ha + Antidote 1 0.22 + Herbicide 1 0.14 + Herbicide 2 4.48 Kg/Ha) was 83%, the “% Injury VELE” value ([3]; Ex. 2: Insecticide 2 3.36 Kg/Ha + Antidote 1 0.22 + Herbicide 2 4.48 Kg/Ha) was 11% and the “% Injury VELE” value ([3]; Ex. 2: Insecticide 2 3.36 Kg/Ha + Antidote 1 0.56 + Herbicide 1 0.56 Kg/Ha (so in the source)) was 95%. For the same molecule, the “Percent Injury VELE” value ([3]; Insecticide 1 0.23 kg/305m + Antidote 1 0.14 + Herbicide 1 0.14 Kg/Ha) was 87%, the “Percent Injury VELE” value ([3]; Insecticide 1 0.23 kg/305m + Antidote 1 0.14 Kg/Ha, no herbicide) was 0% and the “Percent Injury VELE” value ([3]; Insecticide 1 0.23 kg/305m + Antidote 1 0.56 + Herbicide 1 0.56 Kg/Ha) was 90%. For the same molecule, the “Percent Injury VELE” value ([3]; Insecticide 1 0.23 kg/305m + Antidote 1 0.56 Kg/Ha, no herbicide) was 0%, the “Percent Injury VELE” value ([3]; Insecticide 1 0.23 kg/305m + Antidote 1 2.24 + Herbicide 1 2.24 Kg/Ha) was 92% and the “Percent Injury VELE” value ([3]; Insecticide 1 0.23 kg/305m + Antidote 1 2.24 Kg/Ha, no herbicide) was 0%. The “Percent Injury VELE” value ([3]; Insecticide 1 (H2O) (crystals scattered in-furrow) + Antidote 1 2 + Herbicide 1 2 Kg/Ha) was 95%, the “Percent Injury VELE” value ([3]; Insecticide 1 (H2O) (crystals scattered in-furrow) + Antidote 1 2 Kg/Ha) was 0% and the “Percent Injury VELE” value ([3]; Insecticide 2 3.36 kg/ha + Antidote 1 0.14 + Herbicide 1 0.14 Kg/Ha) was 83%. For the same molecule, the “Percent Injury VELE” value ([3]; Insecticide 2 3.36 kg/ha + Antidote 1 0.14 Kg/Ha, no herbicide) was 78%, the “Percent Injury VELE” value ([3]; Insecticide 2 3.36 kg/ha + Antidote 1 0.56 + Herbicide 1 0.56 Kg/Ha) was 92% and the “Percent Injury VELE” value ([3]; Insecticide 2 3.36 kg/ha + Antidote 1 0.56 Kg/Ha, no herbicide) was 33%. For the same molecule, the “Percent Injury VELE” value ([3]; Insecticide 2 3.36 kg/ha + Antidote 1 2.24 + Herbicide 1 2.24 Kg/Ha) was 95%, the “Percent Injury VELE” value ([3]; Insecticide 2 3.36 kg/ha + Antidote 1 2.24 Kg/Ha, no herbicide) was 0% and the “Percent Injury Corn” value [4, 5] was 2%. The “Percent Injury Corn” value [4, 6] was 5%, the “Percent Injury Corn” value [4, 7] was 15% and the “Percent Injury Corn” value ([4]; Antidote 1 2.24 Kg/Ha alone) was 0%. The “% Injury Corn” value [4, 8] was 0%, the “% Injury Corn” value [4, 9] was 8% and the “% Injury Corn” value [4, 10] was 3%. The “% Injury Corn” value [4, 11] was 5%, the injury to corn ([4]; Ex. 2: Herbicide No. 1 0.14 kg/ha + Insecticide 1 or 2, antidote applied at 3 X the herbicide rate) was “less than 10%” and the “% Injury Corn” value [4, 12] was 26%.
